Legend:
Format in all cases: in vivo
[1] = test system: CTGF (connective tissue growth factor) gene expression; assay: Real time PCR of fibrosis marker gene CTGF in ventricular tissue, angiotensin II rat model; settings: corrected with GAPDH, Ang II + luteolin glycoside, FIG. 6
Method: (§1) Angiotensin II was continuously infused to an 8 week-old male SD rat, and the action of luteolin glycoside (luteolin-7-O-glucoside was used) to cardiac fibrosis and cardiomegaly in the acceleration state of oxidative stress was investigated. For the control group, rats were normally raised. For the angiotensin II group (Ang II group), an angiotensin II-continuous infusion pump was implanted subcutaneously in the rat, and continuous infusion was performed for 7 days. […]
(§2) The blood pressure was measured at the seventh day, the degree of the ventricular wall thickness was evaluated with echocardiographic examination, then the heart was removed, and the weights of the heart and the ventricle were measured. The reactive oxygen was evaluated with hydroethidine staining, and the degree of fibrosis was evaluated with Masson's trichrome staining. Gene expressions of the fibrosis marker, and the heart failure marker in the ventricular tissue were evaluated with real time PCR.
(§3) RNA was extracted from the ventricular tissue, and expression amounts of various genes were evaluated with real time PCR.

[2] = test system: BNP (brain natriuretic peptide) gene expression; assay: Real time PCR of cardiomegaly/heart failure marker gene BNP in ventricular tissue, angiotensin II rat model; settings: corrected with GAPDH, Ang II + luteolin glycoside, FIG. 7
Method: as §1, §2, §3

[3] = Plasma luteolin concentration after oral administration to rats; settings: male SD rat, 93 mg/kg PO; in comparison to luteolin (51 mg/kg PO) and luteolin-7-O-apiosyl glucoside (175 mg/kg PO), same aglycone amount; 0.5-8 hours; FIG. 12
Method: Luteolin (51 mg/kg, PO), luteolin-7-O-glucoside (93 mg/kg, PO) and luteolin-7-O-apiosyl glucoside (175 mg/kg, PO) were orally administered to rats (8 weeks old, male SD rat), the blood was collected just before the administration, and at 0.5 hours, 1 hour, 2 hours and 8 hours after the administration from the tail vein, and the plasma luteolin concentration was measured. Meanwhile, the doses of each of the luteolin and a glycoside thereof were the same in terms of the amount of luteolin that is an aglycone.

[4] = test system: TGF-β1 (transforming growth factor) gene expression; assay: Real time PCR of fibrosis marker gene TGF-β1 in ventricular tissue, angiotensin II rat model; settings: corrected with GAPDH, Ang II + luteolin glycoside, FIG. 6
Method: as §1, §2, §3

[5] = test system: ApoE gene-deficient female mouse (ApoE−/−); assay: Acute aneurysm model by angiotensin II-continuous infusion in ApoE gene-deficient mouse
Text: Angiotensin II was continuously infused (for 16 weeks to 20 weeks) to a 12 week-old ApoE gene-deficient female mouse (ApoE−/−) (about 25 g of body weight) whereby to prepare an acute aneurysm model, and the action of luteolin glycoside (luteolin-7-O-glucoside was used) was investigated. For the control group (n=5), mice were normally raised (saline was continuously infused). For the angiotensin II group ([…]), an angiotensin II-continuous infusion pump was implanted subcutaneously in the mouse, and continuous infusion was performed for 4 weeks. For the luteolin glycoside simultaneous-administration group (Ang II+luteolin group), a luteolin glycoside-blended feed (0.055% of luteolin-7-O-glucoside was blended per feed) was fed for 3 weeks, then an angiotensin II-continuous infusion pump was implanted subcutaneously, and continuous infusion was performed for 4 weeks.
When the mouse was 20 weeks old, the blood pressure and body weight were measured, then the heart, the kidney and the aorta were removed, and generation of aneurysm was observed.

[6] = test system: angiotensin II-continuous infusion SD rat; assay: Angiotensin II-continuous infusion rat model of cardiac fibrosis and cardiomegaly
Method: Angiotensin II was continuously infused to an 8 week-old male SD rat, and the action of luteolin glycoside (luteolin-7-O-glucoside was used) to cardiac fibrosis and cardiomegaly in the acceleration state of oxidative stress was investigated. For the control group, rats were normally raised. For the angiotensin II group (Ang II group), an angiotensin II-continuous infusion pump was implanted subcutaneously in the rat, and continuous infusion was performed for 7 days. For the luteolin glycoside simultaneous-administration group (Ang II+LMG group), a luteolin glycoside-blended feed (3.6 g of luteolin monoglycoside (LMG) was blended per 10 kg of feed) was fed for 3 weeks, then an angiotensin II-continuous infusion pump was implanted subcutaneously, and continuous infusion was performed for 7 days.
as §2

[7] = test system: ANP (atrial natriuretic peptide) gene expression; assay: Real time PCR of cardiomegaly/heart failure marker gene ANP in ventricular tissue, angiotensin II rat model; settings: corrected with GAPDH, Ang II + luteolin glycoside, FIG. 7
Method: as §1, §2, §3

## O=c1cc(-c2ccc(O)c(O)c2)oc2cc(O[C@@H]3O[C@H](CO)[C@@H](O)[C@H](O)[C@H]3O)cc(O)c12 [luteolin glycoside, luteolin-7-O-glucoside]
[1]
  gene expression of CTGF in ventricular tissue: suppression of the expression
[2]
  gene expression of BNP in ventricular tissue: suppression of the expression
[3]
  oral absorption (plasma luteolin concentration): remarkably higher
[4]
  gene expression of TGF-β1 in ventricular tissue: suppression of the expression
[5]; 0.055% luteolin-7-O-glucoside feed 3 weeks, then Ang II infusion 4 weeks, 20 weeks old, FIG. 8
  blood pressure: not recognized
[5]; 0.055% luteolin-7-O-glucoside feed, Ang II 4 weeks, 20 weeks old, FIG. 8
  body weight: not recognized
[5]; 0.055% luteolin-7-O-glucoside feed, Ang II 4 weeks, FIG. 9
  aneurysm formation (appearance): definitely suppressed
[5]; 0.055% luteolin-7-O-glucoside feed, Ang II 4 weeks, FIG. 10
  diameter of aneurysm: decreased
[5]; 0.055% luteolin-7-O-glucoside feed, Ang II 4 weeks, FIG. 11
  rupture of the arterial wall elastic fiber: suppressed
[6]; LMG-blended feed (3.6 g per 10 kg feed) 3 weeks, then Ang II infusion 7 days, seventh day, FIG. 1
  blood pressure increased by angiotensin II-continuous administration: did not lower
[6]; LMG-blended feed, Ang II 7 days, Masson's trichrome staining, FIG. 5
  fibrosis of the ventricular wall by angiotensin II: remarkably suppressed
[6]; LMG-blended feed, Ang II 7 days, echocardiographic examination, FIG. 2
  ventricular wall thickening by angiotensin II administration: significantly suppressed
[6]; LMG-blended feed, Ang II 7 days, hydroethidine staining, FIG. 4
  generation of reactive oxygen in the ventricular wall by angiotensin II: remarkably suppressed
[7]
  gene expression of ANP in ventricular tissue: suppression of the expression

From patent US9326990B2, “Heart failure suppressing agent” (THE UNIVERSITY OF TOKYO, priority 2011, dated 2016)
